ChEMBL document CHEMBL5505968, “Hybrids of selective COX-2 inhibitors and active derivatives of edaravone as COX-2 selective NSAIDs with free radical scavenging activity: Design, synthesis and biological activities” (Eur J Med Chem, 2024)
One block for each compound: values may come before it.

How the values were obtained:
[1] = biological target: Prostaglandin G/H synthase 2 (Homo sapiens) (UniProt P35354); assay: Inhibition of COX-2 (unknown origin) using arachidonic acid as substrate at 10 uM preincubated for 10 mins followed by substrate addition and measured after 5 mins by fluorescence based analysis relative to control; details: time 15.0 min
Prostaglandin G/H synthase 2 (Homo sapiens), sequence (P35354 whole entry, looked up): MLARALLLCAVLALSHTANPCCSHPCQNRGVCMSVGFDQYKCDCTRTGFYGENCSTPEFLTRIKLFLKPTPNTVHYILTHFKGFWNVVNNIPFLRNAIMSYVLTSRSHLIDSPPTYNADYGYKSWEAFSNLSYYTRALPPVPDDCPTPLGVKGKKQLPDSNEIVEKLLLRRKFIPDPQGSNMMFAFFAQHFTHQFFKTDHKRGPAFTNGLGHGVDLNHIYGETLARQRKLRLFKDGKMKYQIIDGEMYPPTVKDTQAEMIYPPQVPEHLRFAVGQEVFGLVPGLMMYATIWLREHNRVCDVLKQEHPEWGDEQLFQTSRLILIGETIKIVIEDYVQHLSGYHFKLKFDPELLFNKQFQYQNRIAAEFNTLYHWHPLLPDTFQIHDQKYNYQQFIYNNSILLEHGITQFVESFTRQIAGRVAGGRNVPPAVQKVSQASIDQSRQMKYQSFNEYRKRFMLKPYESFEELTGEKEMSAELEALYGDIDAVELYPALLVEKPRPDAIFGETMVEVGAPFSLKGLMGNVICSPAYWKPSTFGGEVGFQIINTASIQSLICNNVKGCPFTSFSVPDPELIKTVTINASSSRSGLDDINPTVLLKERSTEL

[2] = Antioxidant activity assessed as DPPH radical scavenging activity at 40 uM incubated for 30 mins by thermo-microplate photometric analysis relative to control; assay type: functional
[3] = Antioxidant activity assessed as DPPH radical scavenging activity incubated for 30 mins by thermo-microplate photometric analysis; assay type: functional
[4] = biological target: Prostaglandin G/H synthase 2 (Homo sapiens) (UniProt P35354); assay: Inhibition of COX-2 (unknown origin) using arachidonic acid as substrate at 1 uM preincubated for 10 mins followed by substrate addition and measured after 5 mins by fluorescence based analysis relative to control; details: time 15.0 min
Mus musculus [5] = assay: Analgesic activity against acetic acid-induced ICR mouse assessed as inhibition of writhing at 20 mg/kg,ip pre-administrated with compound for 15 mins followed by acetic acid addition and measured after 15 mins; assay type: functional; details: 0.5 h, time 30 min
Mus musculus [6] = assay: Analgesic activity against acetic acid-induced ICR mouse assessed as number of writhing at 20 mg/kg,ip pre-administrated with compound for 15 mins followed by acetic acid addition and measured after 15 mins; assay type: functional; details: time 30 min, 0.5 h
[7] = MRT (0 to infinity) in ICR mouse at 1 mg/kg,iv administration measured for 0.25 to 8 hrs by LC-MS/MS analysis; assay type: ADME, organism-based; details: in vivo, time 0.25-8 hrs
[8] = MRT (0 to infinity) in ICR mouse at 10 mg/kg,po administration measured for 0.25 to 8 hrs by LC-MS/MS analysis; assay type: ADME, organism-based; details: in vivo, time 0.25-8 hrs
[9] = AUC (0 to infinity) in ICR mouse at 10 mg/kg,po administration measured for 0.25 to 8 hrs by LC-MS/MS analysis; assay type: ADME, organism-based; details: in vivo, time 0.25-8 hrs
Mus musculus [10] = assay: Analgesic activity against acetic acid-induced ICR mouse assessed as inhibition of writhing at 50 mg/kg,ip pre-administrated with compound for 15 mins followed by acetic acid addition and measured after 15 mins; assay type: functional; details: 0.5 h, time 30 min
[11] = AUC (0 to t) in ICR mouse at 10 mg/kg,po administration measured for 0.25 to 8 hrs by LC-MS/MS analysis; assay type: ADME, organism-based; details: in vivo, time 0.25-8 hrs
[12] = AUC (0 to infinity) in ICR mouse at 1 mg/kg,iv administration measured for 0.25 to 8 hrs by LC-MS/MS analysis; assay type: ADME, organism-based; details: in vivo, time 0.25-8 hrs
Mus musculus [13] = assay: Analgesic activity against acetic acid-induced ICR mouse assessed as number of writhing at 50 mg/kg,ip pre-administrated with compound for 15 mins followed by acetic acid addition and measured after 15 mins; assay type: functional; details: time 30 min, 0.5 h
[14] = Cmax in ICR mouse at 1 mg/kg,iv administration measured for 0.25 to 8 hrs by LC-MS/MS analysis; assay type: ADME, organism-based; details: in vivo, time 0.25-8 hrs
[15] = Tmax in ICR mouse at 1 mg/kg,iv administration measured for 0.25 to 8 hrs by LC-MS/MS analysis; assay type: ADME, organism-based; details: in vivo, time 0.25-8 hrs
[16] = Clearance in ICR mouse at 1 mg/kg,iv administration measured for 0.25 to 8 hrs by LC-MS/MS analysis; assay type: ADME, organism-based; details: in vivo, time 0.25-8 hrs
Liver [17] = assay: Antioxidant activity against FeCl2 induced oxidative stress in ICR mouse liver assessed as inhibition of malondialdehyde level at 250 uM incubated for 60 mins by thermo-microplate photometric analysis relative to control; assay type: functional; details: 1 h
[18] = Tmax in ICR mouse at 10 mg/kg,po administration measured for 0.25 to 8 hrs by LC-MS/MS analysis; assay type: ADME, organism-based; details: in vivo, time 0.25-8 hrs
[19] = Half life in ICR mouse at 10 mg/kg,po administration measured for 0.25 to 8 hrs by LC-MS/MS analysis; assay type: ADME, organism-based; details: in vivo, time 0.25-8 hrs
[20] = AUC (0 to t) in ICR mouse at 1 mg/kg,iv administration measured for 0.25 to 8 hrs by LC-MS/MS analysis; assay type: ADME, organism-based; details: in vivo, time 0.25-8 hrs
[21] = Clearance in ICR mouse at 10 mg/kg,po administration measured for 0.25 to 8 hrs by LC-MS/MS analysis; assay type: ADME, organism-based; details: in vivo, time 0.25-8 hrs
[22] = Cmax in ICR mouse at 10 mg/kg,po administration measured for 0.25 to 8 hrs by LC-MS/MS analysis; assay type: ADME, organism-based; details: in vivo, time 0.25-8 hrs
Liver [23] = assay: Antioxidant activity against FeCl2 induced oxidative stress in ICR mouse liver assessed as inhibition of malondialdehyde level at 1000 uM incubated for 60 mins by thermo-microplate photometric analysis relative to control; assay type: functional; details: 1 h
[24] = Half life in ICR mouse at 1 mg/kg,iv administration measured for 0.25 to 8 hrs by LC-MS/MS analysis; assay type: ADME, organism-based; details: in vivo, time 0.25-8 hrs
[25] = Apparent volume of distribution in ICR mouse at 10 mg/kg,po administration measured for 0.25 to 8 hrs by LC-MS/MS analysis; assay type: ADME, organism-based; details: in vivo, time 0.25-8 hrs
[26] = Apparent volume of distribution in ICR mouse at 1 mg/kg,iv administration measured for 0.25 to 8 hrs by LC-MS/MS analysis; assay type: ADME, organism-based; details: in vivo, time 0.25-8 hrs, read-out: Vz
[27] = Bioavailability in ICR mouse at 1 mg/kg,iv administration measured for 0.25 to 8 hrs by LC-MS/MS analysis; assay type: ADME, organism-based; details: in vivo, time 0.25-8 hrs
Liver [28] = assay: Antioxidant activity against FeCl2 induced oxidative stress in ICR mouse liver assessed as inhibition of malondialdehyde level at 500 uM incubated for 60 mins by thermo-microplate photometric analysis relative to control; assay type: functional; details: 1 h

inhibition [1]: 82.5%
IC50 [3]: 22.1 µM
inhibition [4]: 70.5%
SMILES: CCc1nn(-c2ccccc2)c(O)c1Cc1ccc(C(=O)NO)cc1
inhibition [2]: 67.7%

inhibition [1]: 73%
inhibition [4]: 54.5%
SMILES: CC(C)(C)c1nn(-c2ccccc2)c(O)c1Cc1ccc(C(=O)O)cc1
inhibition [2]: 49.9%

inhibition [1]: 75%
inhibition [4]: 45.5%
SMILES: Cc1nn(-c2cccc(Cl)c2)c(O)c1Cc1ccc(C(=O)O)cc1
inhibition [2]: 35.8%

inhibition [1]: 83.5%
inhibition [4]: 63.5%
SMILES: CCc1nn(-c2ccccc2)c(O)c1Cc1ccc(C(=O)O)cc1
inhibition [2]: 42.7%

inhibition [1]: 72.5%
inhibition [4]: 55%
SMILES: O=C(NO)c1ccc(Cc2c(C3CC3)[nH]n(-c3ccccc3)c2=O)cc1
inhibition [2]: 64.7%

inhibition [1]: 89%
IC50 [3]: 19.6 µM
inhibition [4]: 75%
SMILES: CC(C)(C)c1nn(-c2ccccc2)c(O)c1Cc1ccc(C(=O)NO)cc1
inhibition [2]: 72.9%

inhibition [1]: 94.5%
inhibition [4]: 63.5%
SMILES: Cc1nn(-c2ccccc2)c(O)c1Cc1cccc(C(=O)O)c1
inhibition [2]: 17.4%

inhibition [1]: 86.5%
inhibition [4]: 78%
SMILES: Cc1nn(-c2ccccc2)c(O)c1Cc1ccc(CC(=O)O)cc1
inhibition [2]: 38.5%

inhibition [1]: 82%
inhibition [4]: 57.5%
SMILES: O=C(O)c1ccc(Cc2c(C3CC3)nn(-c3ccccc3)c2O)cc1
inhibition [2]: 37.3%

inhibition [1]: 95%
inhibition [4]: 85.5%
SMILES: Cc1nn(-c2ccccc2)c(O)c1Cc1ccc(C(=O)O)cc1
inhibition [2]: 37.7%

More lines, now with the values behind:

SMILES: Cc1ccc(-c2cc(C(F)(F)F)nn2-c2ccc(S(N)(=O)=O)cc2)cc1 [CELECOXIB]
inhibition in vivo at 20 mg/kg (Mus musculus [5]): 80.9%
Activity (Mus musculus [6]): 7.1

SMILES: COc1cccc(-n2nc(C)c(Cc3ccc(C(=O)O)cc3)c2O)c1
inhibition [1]: 79%
inhibition [2]: 33.6%
inhibition [4]: 58.5%

SMILES: Cc1nn(-c2ccccc2)c(O)c1Cc1cccc(S(C)(=O)=O)c1
inhibition [1]: 84.5%
inhibition [2]: 22.8%
inhibition [4]: 77.5%

SMILES: Cc1nn(-c2ccc(Cl)cc2)c(O)c1Cc1ccc(C(=O)NO)cc1
inhibition [1]: 78.5%
inhibition [2]: 68%
inhibition [4]: 64.5%

SMILES: Cc1nn(-c2ccc(Cl)c(Cl)c2)c(O)c1Cc1ccc(C(=O)NO)cc1
inhibition [1]: 80.5%
inhibition [2]: 58.1%
inhibition [4]: 58.5%

SMILES: Cc1nn(-c2ccccc2)c(O)c1Cc1ccc(S(C)(=O)=O)cc1
inhibition [1]: 90%
inhibition [2]: 37.1%
inhibition [4]: 77.5%

SMILES: Cc1nn(-c2ccc(Cl)cc2)c(O)c1Cc1ccc(C(=O)O)cc1
inhibition [1]: 78.5%
inhibition [2]: 36.1%
inhibition [4]: 46%

SMILES: Cc1nn(-c2ccc(Cl)c(Cl)c2)c(O)c1Cc1ccc(C(=O)O)cc1
inhibition [1]: 81%
inhibition [2]: 38.6%
inhibition [4]: 50.5%

SMILES: Cc1[nH]n(-c2ccccc2)c(=O)c1Cc1ccc(C(=O)NO)cc1
MRT inf [7]: 1.08 h
MRT inf [8]: 6.32 h
AUC(0-inf) [9]: 28400 ng·h/mL
inhibition in vivo at 20 mg/kg (Mus musculus [5]): 70.2%
inhibition in vivo at 50 mg/kg (Mus musculus [10]): 73.7%
AUC(0-t) [11]: 20300 ng·h/mL
inhibition [1]: 98%
AUC(0-inf) [12]: 7870 ng·h/mL
Activity (Mus musculus [13]): 9.8
Cmax [14]: 12200 ng/mL
inhibition [2]: 71.6%
Tmax [15]: 4.8 min
clearance [16]: 2.12 mL/min/kg
inhibition at 250 µM (Liver [17]): 51.9%
Tmax [18]: 1 h
Activity (Mus musculus [6]): 11.1
half-life [19]: 4.16 h
AUC(0-t) [20]: 7680 ng·h/mL
CL/F [21]: 5.92 mL/min/kg
Cmax [22]: 4510 ng/mL
IC50 [3]: 19.9 µM
inhibition at 1000 µM (Liver [23]): 77.3%
half-life [24]: 2.74 h
Vz [25]: 2.13507 L/kg
Vd [26]: 0.508 L/kg
inhibition [4]: 87%
bioavailability [27]: 36%
inhibition at 500 µM (Liver [28]): 62.3%

SMILES: Cc1[nH]n(-c2ccccc2)c(=O)c1Cc1cccc(C(=O)NO)c1
inhibition [1]: 86%
inhibition [2]: 11%
inhibition [4]: 66.5%

SMILES: COc1cccc(-n2nc(C)c(Cc3ccc(C(=O)NO)cc3)c2O)c1
inhibition [1]: 89%
inhibition [2]: 43.3%
inhibition [4]: 78%

SMILES: CC1=NN(c2ccccc2)C(=O)C1 [EDARAVONE]
inhibition [2]: 64.3%
inhibition at 250 µM (Liver [17]): 37.7%
IC50 [3]: 32.8 µM
inhibition at 1000 µM (Liver [23]): 62.2%
inhibition at 500 µM (Liver [28]): 46.9%

SMILES: Cc1nn(-c2cccc(Cl)c2)c(O)c1Cc1ccc(C(=O)NO)cc1
inhibition [1]: 90.5%
inhibition [2]: 69.2%
IC50 [3]: 23.8 µM
inhibition [4]: 75%
